Measurements reported in ChEMBL document CHEMBL6153094, “Rationally designed highly amphipathic antimicrobial peptides demonstrating superior bacterial selectivity relative to the corresponding α-helix peptide” (Eur J Med Chem, 2025).
Values after ≈ are worked out from the molar mass of the structure shown. Active and inactive are the calls of the source. No cut-off for these calls is given here.

Assays:
Acinetobacter baumannii = test: Antimicrobial activity against Acinetobacter baumannii ATCC 19606 assessed as inhibition of visible bacterial growth incubated for 18 hrs by broth microdilution method; assay type: functional
Escherichia coli = test: Antimicrobial activity against Escherichia coli ATCC 25922 assessed as inhibition of visible bacterial growth incubated for 18 hrs by broth microdilution method; assay type: functional
Klebsiella pneumoniae = test: Antimicrobial activity against Klebsiella pneumoniae ATCC 700603 assessed as inhibition of visible bacterial growth incubated for 18 hrs by broth microdilution method; assay type: functional
Pseudomonas aeruginosa = test: Antimicrobial activity against Pseudomonas aeruginosa ATCC 27853 assessed as inhibition of visible bacterial growth incubated for 18 hrs by broth microdilution method; assay type: functional
Bacillus subtilis = test: Antimicrobial activity against Bacillus subtilis ATCC 23857 assessed as inhibition of visible bacterial growth incubated for 18 hrs by broth microdilution method; assay type: functional
[1] = system: Staphylococcus epidermidis; test: Antimicrobial activity against Staphylococcus epidermidis ATCC 12228 assessed as inhibition of visible bacterial growth incubated for 18 hrs by broth-dilution method; assay type: functional
Staphylococcus aureus [2] = test: Antimicrobial activity against Staphylococcus aureus ATCC 25923 assessed as inhibition of visible bacterial growth incubated for 18 hrs by broth-dilution method; assay type: functional
Enterococcus faecalis = test: Antimicrobial activity against Enterococcus faecalis ATCC 29212 assessed as inhibition of visible bacterial growth incubated for 18 hrs by broth-dilution method; assay type: functional
Staphylococcus aureus [3] = test: Antimicrobial activity against methicillin-drug resistant Staphylococcus aureus ATCC 33591 assessed as concentration required to eliminate 90% bacteria incubated for 18 hrs by broth-microdilution method; assay type: functional
Staphylococcus aureus [4] = test: Antibacterial activity against methicillin-resistant Staphylococcus aureus ATCC 33591 infected in male Balb/c mouse model of full thickness skin wound assessed as reduction in bacterial load in skin at 1 mg/ml pre-infected with bacteria for 1 hrs followed by compound administration at 1,12 and 36 hrs post infection and measured 60 hrs post infection by agar plate method; assay type: functional, organism-based; conditions: time 59.0 hrs
Staphylococcus aureus [5] = test: Antibacterial activity against methicillin-resistant Staphylococcus aureus ATCC 33591 infected in male Balb/c mouse model of full thickness skin wound assessed as reduction in bacteria in skin wound at 1 mg/ml pre-infected with bacteria for 1 hrs followed by compound administration at 1,12 and 36 hrs post infection and measured after 10 days by photographic analysis; assay type: functional, organism-based; conditions: time 10.0 day
Staphylococcus aureus [6] = test: (§1) Antibacterial activity against methicillin-resistant Staphylococcus aureus ATCC 33591 infected in male Balb/c mouse model of full thickness skin wound assessed as reduction in number of inflammatory cells in skin at 1 mg/ml pre-infected with bacteria for 1 hrs followed by compound administration at 1,12 and 36 hrs post infection and measured after 10 days by H and E staining based analysis; assay type: functional, organism-based; conditions: time 10.0 day
Staphylococcus aureus [7] = test: as §1, with “decrease” for “reduction”, “cell necrosis” for “number of inflammatory cells”; assay type: functional, organism-based; conditions: time 10.0 day
[8] = Hemolytic activity in mouse red blood cells assessed as hemolysis incubated for 1 hrs by absorbance based assay; assay type: toxicity, cell-based; conditions: erythrocyte

| Compound | MIC (Acinetobacter baumannii) [µM] | MIC (Escherichia coli) [µM] | MIC (Klebsiella pneumoniae) [µM] | MIC (Pseudomonas aeruginosa) [µM] | MIC (Bacillus subtilis) [µM] | MIC [1] [µM] | MIC (Staphylococcus aureus [2]) [µM] | MIC (Enterococcus faecalis) [µM] | EC90 (Staphylococcus aureus [3]) [nM] | Activity (Staphylococcus aureus [4]) | Activity (Staphylococcus aureus [5]) | Activity (Staphylococcus aureus [6]) | Activity (Staphylococcus aureus [7]) | HC10 [8] [µM] | Activity [8] |
| --- | --- | --- | --- | --- | --- | --- | --- | --- | --- | --- | --- | --- | --- | --- | --- |
| CO[C@H]1/C=C/O[C@@]2(C)Oc3c(C)c(O)c4c(O)c(c(/C=N/N5CCN(C)CC5)c(O)c4c3C2=O)NC(=O)/C(C)=C\C=C\[C@H](C)[C@H](O)[C@@H](C)[C@@H](O)[C@@H](C)[C@H](OC(C)=O)[C@@H]1C [RIFAMPIN] | 1 (≈ 0.823 µg/mL) | 8 (≈ 6.58 µg/mL) | 32 (≈ 26.3 µg/mL) | 32 (≈ 26.3 µg/mL) | < 1 | < 1 | < 1 | < 1 |  |  |  |  |  |  |  |
| CN[C@H](CC(C)C)C(=O)N[C@H]1C(=O)N[C@@H](CC(N)=O)C(=O)N[C@H]2C(=O)N[C@H]3C(=O)N[C@H](C(=O)N[C@H](C(=O)O)c4cc(O)cc(O)c4-c4cc3ccc4O)[C@H](O)c3ccc(c(Cl)c3)Oc3cc2cc(c3O[C@@H]2O[C@H](CO)[C@@H](O)[C@H](O)[C@H]2O[C@H]2C[C@](C)(N)[C@H](O)[C@H](C)O2)Oc2ccc(cc2Cl)[C@H]1O [VANCOMYCIN] | 32 (≈ 46.4 µg/mL) | 128 (≈ 186 µg/mL) | 128 (≈ 186 µg/mL) | > 128 | < 1 | < 1 | < 1 | 2 (≈ 2.9 µg/mL) | 289 | Active | Active; Obvious Facilitation Of Wound Healing Not Observed | Active | Active |  |  |
| H-RRWFRRWERWFE-NH2 | 32 | 16 | 16 | 16 | 4 | 8 | 32 | 128 |  |  |  |  |  | > 256 |  |
| H-RRWFRRWFRRWF-NH2 | 16 | 16 | 16 | 16 | 8 | 8 | 8 | 16 |  |  |  |  |  | 16.44 |  |
| H-RRWFRRWFRWFF-NH2 | 32 | 32 | 32 | 16 | 2 | 4 | 32 | 32 |  |  |  |  |  |  | Toxic |
| H-RRWFRRWGRWFG-NH2 [listing 1 of 2 here] |  |  |  |  |  |  |  |  |  |  |  |  |  | > 256 |  |
| H-RRWFRRWGRWFG-NH2 [listing 2 of 2 here] | 32 | 8 | 8 | 2 | 2 | 2 | 16 | 32 |  |  |  |  |  |  |  |
| H-RRWFRRWIRWFI-NH2 | 16 | 16 | 16 | 16 | 1 | 4 | 16 | 16 |  |  |  |  |  | 2.39 |  |
| H-RRWFRRWKRWFK-NH2 | 16 | 8 | 4 | 2 | 1 | 2 | 4 | 32 |  |  |  |  |  | > 256 |  |
| H-RRWFRRWLRWFL-NH2 | 32 | 16 | 32 | 16 | 2 | 2 | 16 | 32 |  |  |  |  |  |  | Toxic |
| H-RRWFRRWTRWFT-NH2 | 8 | 8 | 8 | 4 | 1 | 2 | 8 | 16 |  |  |  |  |  | > 256 |  |
| H-RRWFRRWWRWFW-NH2 | 32 | 32 | 64 | 32 | 4 | 4 | 32 | 32 |  |  |  |  |  |  | Toxic |
